Source: US6683184B2, “Piperazine derivatives and process for the preparation thereof” (Samjin Pharmaceutical Co., Ltd., priority 1999, dated 2004)
Converted amounts (≈) assume the structure as drawn.

Legend:
Assay type in all cases: cell-based
[1] = test system: A549 (human non-small lung cell); experiment: In vitro antitumor effect against human tumor cell lines, SRB assay, A549; conditions: A549 cells, 48 hours; for IC50: Homo sapiens, read-out: ED50 A 549
Procedure: (§1) In vitro antitumor effect against human tumor cell lines.
(§2) a. Human solid tumor cell lines, A549(non-small lung cell), SKMEL-2(melanoma), HCT-15(colon), SKOV-3(ovarian), XF-498(CNS) were cultured at 37° C. in 5% CO2 incubators using RPMI 1640 media containing 10% FBS, while they were transfer-cultured successively once or twice per week. Cell cultures were dissolved in a solution of 0.25% trypsin and 3 mM CDTA PBS(−) and then cells were separated from media which the cells were sticked on.
(§3) b. 5×10^3˜2×10^4 cells were added into each well of 96-well plate and cultured in 5% CO2 incubator, at 37° C., for 24 hours.
(§4) c. Each sample drug was dissolved in a little DMSO and diluted with the used medium to a prescribed concentration for experiments, wherein the final concentration of DMSO was controlled below 0.5%.
(§5) d. Medium of each well cultured for 24 hours as above b. was removed by aspiration. Each 200 μl of drug samples prepared in c. was added into each well and the wells were cultured for 48 hours. Tz(time zero) plates were collected at the point of time drugs were added.
(§6) e. According to the SRB assay method, cell fixing with TCA, staining with 0.4% SRB solution, washing with 1% acetic acid and elution of dye with 10 mM Tris solution were carried out on Tz plates and culture-ended plates, whereby OD values were measured at 520 nm.
(§7) a. Time zero(Tz) value was determined with measuring the SRB protein amounts of the Tz plates collected at the point of time drugs were added.
(§8) b. Control value(C) was determined with the OD values of wells untreated with a drug.
(§9) c. Drug-treated test value(T) was determined with the OD values of drug-treated wells.
(§10) d. Effects of drugs were estimated with growth stimulation, net growth inhibition, net killing etc., being calculated from Tz, C and T.
(§11) e. If T≧Tz, cellular response function was calculated by 100×(T−Tz)/(C−Tz), and if T<Tz, by 100×(T−Tz)/Tz.

SKOV-3 (human ovarian) = experiment: In vitro antitumor effect against human tumor cell lines, SRB assay, SKOV-3; conditions: SK-OV-3 cells, 48 hours; for IC50: Homo sapiens, read-out: ED50 SK-OV-3
Procedure: as §1, §2, §3, §4, §5, §6, §7, §8, §9, §10, §11

SKMEL-2 (human melanoma) = experiment: In vitro antitumor effect against human tumor cell lines, SRB assay, SKMEL-2; conditions: SK-MEL-2 cells, 48 hours; for IC50: Homo sapiens, read-out: ED50 SK-MEL-2
Procedure: as §1, §2, §3, §4, §5, §6, §7, §8, §9, §10, §11

XF 498 (human CNS) = experiment: In vitro antitumor effect against human tumor cell lines, SRB assay, XF 498; conditions: 48 hours; for IC50: Homo sapiens, XF498, XF-498 cells, read-out: ED50 XF-498; for ED50 XF-498: XF-498 cells
Procedure: as §1, §2, §3, §4, §5, §6, §7, §8, §9, §10, §11

HCT-15 (human colon) = experiment: In vitro antitumor effect against human tumor cell lines, SRB assay, HCT-15; conditions: HCT 15 cells, 48 hours; for IC50: Homo sapiens, read-out: ED50 HCT 15
Procedure: as §1, §2, §3, §4, §5, §6, §7, §8, §9, §10, §11

Molecule	IC50 [1]	IC50 (SKOV-3 (human ovarian))	IC50 (SKMEL-2 (human melanoma))	IC50 (XF 498 (human CNS))	IC50 (HCT-15 (human colon))	ED50 A 549 [1]	ED50 SK-OV-3 (SKOV-3 (human ovarian))	ED50 SK-MEL-2 (SKMEL-2 (human melanoma))	ED50 XF-498 (XF 498 (human CNS))	ED50 HCT 15 (HCT-15 (human colon))
CCc1ccccc1N1CCN(C(=O)Nc2nc(C)c(C)nc2OC)CC1 [Example 4, 1-[(5,6-Dimethyl-2-methoxypyrazin-3-yl)aminocarbonyl]-4-(2-ethylphenyl)piperazine]	47 ng/mL (≈ 0.127 µM)	251 ng/mL (≈ 0.679 µM)	42 ng/mL (≈ 0.114 µM)	89 ng/mL (≈ 0.241 µM)	38 ng/mL (≈ 0.103 µM)					
COc1nc2ccccc2nc1N(C)C(=O)N1CCN(c2cc(C)cc(C)c2)CC1 [Example 55, 1-[(2-Methoxyquinoxalin-3-yl)N-methylaminocarbonyl]-4-(3,5-dimethylphenyl)piperazine]	340 ng/mL (≈ 0.838 µM)	490 ng/mL (≈ 1.21 µM)	220 ng/mL (≈ 0.543 µM)	410 ng/mL (≈ 1.01 µM)	330 ng/mL (≈ 0.814 µM)					
COc1cc2ccccc2cc1NC(=O)N1CCN(c2cc(Cl)cc(Cl)c2)CC1 [Example 89, 1-[(2-Methoxynaphth-3-yl)aminocarbonyl]-4-(3,5-dichlorophenyl)piperazine]	40 ng/mL (≈ 0.093 µM)	200 ng/mL (≈ 0.465 µM)	30 ng/mL (≈ 0.0697 µM)	40 ng/mL (≈ 0.093 µM)	50 ng/mL (≈ 0.116 µM)					
COc1cc(OC)cc(N2CCN(C(=Nc3cc(CO)c(C)nc3OC)NO)CC2)c1 [Example 125, N-Hydroxy-N′-(5-hydroxymethyl-2-methoxy-6-methylpyridin-3-yl)-[4-(3,5-dimethoxyphenyl)piperazin-1-yl]carboxyimidamide]						0.9 ng/mL (≈ 0.00209 µM)	0.8 ng/mL (≈ 0.00185 µM)	0.1 ng/mL (≈ 0.000232 µM)	0.1 ng/mL (≈ 0.000232 µM)	0.1 ng/mL (≈ 0.000232 µM)
CCc1ccccc1N1CCN(C(=O)Nc2nc3ccccc3nc2OC)CC1 [Example 39, 1-[(2-Methoxyquinoxalin-3-yl)aminocarbonyl]-4-(2-ethylphenyl)piperazine]	100 ng/mL (≈ 0.255 µM)	330 ng/mL (≈ 0.843 µM)	70 ng/mL (≈ 0.179 µM)	140 ng/mL (≈ 0.358 µM)	60 ng/mL (≈ 0.153 µM)					
COc1cc(OC)cc(N2CCN(C(=Nc3cc(C)c(C)nc3OC)NO)CC2)c1 [Example 101, N-Hydroxy-N′-(5,6-dimethyl-2-methoxypyridin-3-yl)-[4-(3,5-dimethoxyphenyl)piperazin-1-yl]carboxyimidamide]						0.3 ng/mL (≈ 0.000722 µM)	0.3 ng/mL (≈ 0.000722 µM)	0.3 ng/mL (≈ 0.000722 µM)	0.2 ng/mL (≈ 0.000481 µM)	0.1 ng/mL (≈ 0.000241 µM)
COc1nc2ccccc2nc1NC(=S)N1CCN(c2cc(F)cc(F)c2)CC1 [Example 68, 1-[(2-Methoxyquinoxalin-3-yl)aminothiocarbonyl]-4-(3,5-difluorophenyl)piperazine]	380 ng/mL (≈ 0.915 µM)	860 ng/mL (≈ 2.07 µM)	340 ng/mL (≈ 0.818 µM)	470 ng/mL (≈ 1.13 µM)	310 ng/mL (≈ 0.746 µM)					
COc1nc2ccccc2nc1NC(=O)N1CCN(c2ccccc2SC)CC1 [Example 51, 1-[(2-Methoxyquinoxalin-3-yl)aminocarbonyl]-4-(2-methylt-hiophenyl)piperazine]						370 ng/mL (≈ 0.904 µM)	680 ng/mL (≈ 1.66 µM)	280 ng/mL (≈ 0.684 µM)	630 ng/mL (≈ 1.54 µM)	180 ng/mL (≈ 0.44 µM)
COc1cc(C)c(C)cc1N=C(NO)N1CCN(c2cc(F)cc(F)c2)CC1 [Example 182, N-Hydroxy-N′-(4,5-dimethyl-2-methoxyphenyl-1-yl)-[4-(3,5-difluorophenyl)piperazin-1-yl]carboxyimidamide]						292 ng/mL (≈ 0.748 µM)	81 ng/mL (≈ 0.207 µM)	33 ng/mL (≈ 0.0845 µM)	103 ng/mL (≈ 0.264 µM)	6 ng/mL (≈ 0.0154 µM)
COc1nc(C)c(C)nc1NC(=O)N1CCN(c2ccccc2SC)CC1 [Example 14, 1-[(5,6-Dimethyl-2-methoxypyrazin-3-yl)aminocarbonyl]-4-(2-methylthiophenyl)piperazine]	204 ng/mL (≈ 0.526 µM)	677 ng/mL (≈ 1.75 µM)	283 ng/mL (≈ 0.73 µM)	340 ng/mL (≈ 0.877 µM)	67 ng/mL (≈ 0.173 µM)					
COc1nc2ccccc2cc1N=C(NO)N1CCN(c2cc(C)cc(C)c2)CC1 [Example 173, N-Hydroxy-N′-(2-methoxyquinolin-3-yl)-[4-(3,5-dimethylphenyl)-piperazin-1-yl]carboxyimidamide]						400 ng/mL (≈ 0.986 µM)	860 ng/mL (≈ 2.12 µM)	150 ng/mL (≈ 0.37 µM)	210 ng/mL (≈ 0.518 µM)	180 ng/mL (≈ 0.444 µM)
COc1nc(C)c(C)cc1N=C(NO)N1CCN(c2cc(CO)cc(CO)c2)CC1 [Example 107, N-Hydroxy-N′-(5,6-dimethyl-2-methoxypyridin-3-yl)-{4-[3,5-bis-(hydroxymethyl)phenyl]piperazin-1-yl}carboxyimidamide]						32 ng/mL (≈ 0.077 µM)	13 ng/mL (≈ 0.0313 µM)	5 ng/mL (≈ 0.012 µM)	8 ng/mL (≈ 0.0193 µM)	9 ng/mL (≈ 0.0217 µM)
COc1cc2ccccc2cc1NC(=O)N1CCN(c2cc(C)cc(C)c2)CC1 [Example 86, 1-[(2-Methoxynaphth-3-yl)aminocarbonyl]-4-(3,5-dimethylphenyl)piperazine]	40 ng/mL (≈ 0.103 µM)	80 ng/mL (≈ 0.205 µM)	30 ng/mL (≈ 0.077 µM)	40 ng/mL (≈ 0.103 µM)	60 ng/mL (≈ 0.154 µM)					
COc1nc2ccccc2cc1N=C(NO)N1CCN(c2cccc(Cl)c2)CC1 [Example 176, N-Hydroxy-N′-(2-methoxyquinolin-3-yl)-[4-(3-chlorophenyl)-piperazin-1-yl]carboxyimidamide]						1.2 ng/mL (≈ 0.00291 µM)	0.9 ng/mL (≈ 0.00219 µM)	0.3 ng/mL (≈ 0.000728 µM)	0.1 ng/mL (≈ 0.000243 µM)	0.1 ng/mL (≈ 0.000243 µM)
1-[(5,6-Dichloroethyl-2-methoxypyrazin-3-yl)aminocarbonyl]-4-(3,5-dimethylphenyl)piperazine [Example 34]						2.3 ng/mL	3.8 ng/mL	0.3 ng/mL	2.1 ng/mL	2.1 ng/mL
COc1cc(OC)cc(N2CCN(C(=Nc3cc(C(C)=O)c(C)nc3OC)NO)CC2)c1 [Example 133, N-Hydroxy-N′-(5-acetyl-2-methoxy-6-methylpyridin-3-yl)-[4-(3,5-dimethoxyphenyl)piperazin-1-yl]carboxyimidamide]						0.1 ng/mL (≈ 0.000225 µM)	0.1 ng/mL (≈ 0.000225 µM)	0.1 ng/mL (≈ 0.000225 µM)	0.1 ng/mL (≈ 0.000225 µM)	0.1 ng/mL (≈ 0.000225 µM)
COc1cc(OC)cc(N2CCN(C(=Nc3cc4ccccc4nc3OC)NO)CC2)c1 [Example 172, N-Hydroxy-N′-(2-methoxyquinolin-3-yl)-[4-(3,5-dimethoxyphenyl)-piperazin-1-yl]carboxyimidamide]						70 ng/mL (≈ 0.16 µM)	80 ng/mL (≈ 0.183 µM)	20 ng/mL (≈ 0.0457 µM)	30 ng/mL (≈ 0.0686 µM)	20 ng/mL (≈ 0.0457 µM)
COc1cc(C)c(C)cc1N=C(NO)N1CCN(c2ccccc2)CC1 [Example 177, N-Hydroxy-N′-(4,5-dimethyl-2-methoxyphenyl-1-yl)-(4-phenylpiperazin-1-yl)carboxyimidamide]						0.6 ng/mL (≈ 0.00169 µM)	0.8 ng/mL (≈ 0.00226 µM)	0.3 ng/mL (≈ 0.000846 µM)	0.4 ng/mL (≈ 0.00113 µM)	0.1 ng/mL (≈ 0.000282 µM)
COc1cc2ccccc2cc1N(C)C(=O)N1CCN(c2cc(C)cc(C)c2)CC1 [Example 90, 1-[(2-Methoxynaphth-3-yl)-N-methylaminocarbonyl]-4-(3,5-dimethylphenyl)piperazine]	380 ng/mL (≈ 0.942 µM)	350 ng/mL (≈ 0.867 µM)	900 ng/mL (≈ 2.23 µM)	680 ng/mL (≈ 1.69 µM)	200 ng/mL (≈ 0.496 µM)					
